# Assay results published in patent publication EP2526945A1, “New CRTH2 Antagonists” (Almirall, S.A., priority 2011, dated 2012).
# Biological target: T1, CRTh2 receptor (Homo sapiens, UniProt Q9Y5Y4)
# T1 construct: expressed in transfected cells; host or cells: CHO.K1 cells (membranes)
# T1 sequence (Q9Y5Y4 1-395): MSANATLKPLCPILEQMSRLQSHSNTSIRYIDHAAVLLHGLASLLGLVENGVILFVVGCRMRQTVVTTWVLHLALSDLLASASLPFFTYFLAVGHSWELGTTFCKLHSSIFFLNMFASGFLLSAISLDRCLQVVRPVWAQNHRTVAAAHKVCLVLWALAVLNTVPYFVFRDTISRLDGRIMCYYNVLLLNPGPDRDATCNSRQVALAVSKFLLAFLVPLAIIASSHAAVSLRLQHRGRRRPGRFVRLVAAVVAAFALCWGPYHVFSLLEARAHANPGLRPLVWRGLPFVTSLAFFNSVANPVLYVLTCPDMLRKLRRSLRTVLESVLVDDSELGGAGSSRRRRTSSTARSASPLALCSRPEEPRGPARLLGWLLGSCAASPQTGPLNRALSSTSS
# Experiment: CRTh2 GTPγS antagonism binding assay
# Format: biochemical
# Settings: membranes from CHO.K1 cells stably overexpressing the CRTh2 receptor; PGD2 at 50 nM (EC80); [35S]-GTPγS as radioligand; read-out: GTPγ Binding
# Procedure: CRTh2 GTPγS antagonism binding assay
# The assay is performed using membranes obtained from CHO.K1 cells stably overexpressing the CRTh2 receptor and [^35S]-GTPγS as radioligand. Assay is performed pre-incubating 4-8 µg of membranes per well with the compound to be tested for 1 h, followed by incubation with PGD2 at 50 nM (EC80), 0.1 nM [^35S]-GTPγS in incubation buffer (20 mM HEPES, 10 mM MgCl2, 100 mM NaCl, 10 µM GDP, 10 µg/ml Saponine and 0.2% BSA) for 2 h at room temperature. The reaction is terminated by filtering in GF/C plates pre-treated with 20 mM HEPES, 10 mM MgCl2, 100 mM NaCl and washing 6 times with wash buffer (20 mM NaH2PO4, 20 mM Na2HPO4). After washing, plates are dried and scintillation buffer Optiphase added. The radioactivity retained in the filter is counted using a Microbeta liquid scintillation counter.
row,IC50,Compound
1,20 nM,"Cc1c(Cc2ccccc2S(=O)(=O)N2CCOCC2)c2c(n1CC(=O)O)CCNC2=O [Example 24, {2-Methyl-3-[2-(morpholin-4-ylsulfonyl)benzyl]-4-oxo-4,5,6,7-tetrahydro-1H-pyrrolo[3,2-c]pyridin-1-yl}acetic acid]"
2,4.5 nM,"Cc1c(Cc2ccccc2S(=O)(=O)c2ccccc2)c2c(n1CC(=O)O)CC(C)(C)NC2=O [Example 58, {2,6,6-Trimethyl-4-oxo-3-[2-(phenylsulfonyl)benzyl]-4,5,6,7-tetrahydro-1H-pyrrolo[3,2-c]pyridin-1-yl}acetic acid]"
3,3.9 nM,"Cc1c(Cc2cc(Br)ccc2S(=O)(=O)c2ccccc2)c2c(n1CC(=O)O)CCNC2=O [Example 42, {3-[5-Bromo-2-(phenylsulfonyl)benzyl]-2-methyl-4-oxo-4,5,6,7-tetrahydro-1H-pyrrolo[3,2-c]pyridin-1-yl}acetic acid]"
4,2.9 nM,"Cc1c(Cc2ccc(S(=O)(=O)Cc3ccccc3)cc2)c2c(n1CC(=O)O)CCNC2=O [Example 39, {3-[4-(Benzylsulfonyl)benzyl]-2-methyl-4-oxo-4,5,6,7-tetrahydro-1H-pyrrolo[3,2-c]pyridin-1-yl}acetic acid]"
5,4.9 nM,"Cc1c(Cc2ccccc2S(=O)(=O)c2ccccc2)c2c(=O)n(C)ccc2n1CC(=O)O [Example 75, {2,5-Dimethyl-4-oxo-3-[2-(phenylsulfonyl)benzyl]-4,5-dihydro-1H-pyrrolo[3,2-c]pyridin-1-yl}acetic acid]"
6,3.6 nM,"COc1ccc(S(=O)(=O)c2ccccc2)c(Cc2c3c(n(CC(=O)O)c2C)CCNC3=O)c1 [Example 6, {3-[5-Methoxy-2-(phenylsulfonyl)benzyl]-2-methyl-4-oxo-4,5,6,7-tetrahydro-1H-pyrrolo[3,2-c]pyridin-1-yl}acetic acid]"
7,5 nM,"Cc1c(Cc2ccccc2S(=O)(=O)c2ccc(F)cc2)c2c(n1CC(=O)O)CC(C)(C)NC2=O [Example 60, (3-{2-[(4-Fluorophenyl)sulfonyl]benzyl}-2,6,6-trimethyl-4-oxo-4,5,6,7-tetrahydro-1 H-pyrrolo[3,2-c]pyridin-1-yl)acetic acid]"
8,4.8 nM,"COc1ccc(S(=O)(=O)c2ccc(F)cc2)c(Cc2c3c(n(CC(=O)O)c2C)CC(C)(C)NC3=O)c1 [Example 62, (3-{2-[(4-Fluorophenyl)sulfonyl]-5-methoxybenzyl}-2,6,6-trimethyl-4-oxo-4,5,6,7-tetrahydro-1H-pyrrolo[3,2-c]pyridin-1-yl)acetic acid]"
9,5.9 nM,"Cc1c(Cc2cccn2S(=O)(=O)c2ccccc2)c2c(n1CC(=O)O)CCNC2=O [Example 44, (2-Methyl-4-oxo-3-{[1-(phenylsulfonyl)-1H-pyrrol-2-yl]methyl}-4,5,6,7-tetrahydro-1 H-pyrrolo[3,2-c]pyridin-1-yl)acetic acid]"
10,3.2 nM,"Cc1c(Cc2ccccc2S(=O)(=O)c2ccc(F)cc2)c2c(n1CC(=O)O)CCNC2=O [Example 4, (3-{2-[(4-Fluorophenyl)sulfonyl]benzyl}-2-methyl-4-oxo-4,5,6,7-tetrahydro-1H-pyrrolo[3,2-c]pyridin-1-yl)acetic acid]"
11,18 nM,"Cc1c(Cc2ccc(C(=O)O)cc2S(=O)(=O)c2ccccc2)c2c(n1CC(=O)O)CCNC2=O [Example 29, 4-{[1-(Carboxymethyl)-2-methyl-4-oxo-4,5,6,7-tetrahydro-1H-pyrrolo[3,2-c]pyridin-3-yl]methyl}-3-(phenylsulfonyl)benzoic acid]"
12,9.5 nM,"CNC(=O)c1ccc(Cc2c3c(n(CC(=O)O)c2C)CCNC3=O)c(S(=O)(=O)c2ccccc2)c1 [Example 31, {2-Methyl-3-[4-[(methylamino)carbonyl]-2-(phenylsulfonyl)benzyl]-4-oxo-4,5,6,7-tetrahydro-1H-pyrrolo[3,2-c]pyridin-1-yl}acetic acid]"
13,9.2 nM,"Cc1c(Cc2ccccc2S(=O)(=O)c2ccccc2)c2c(n1[C@H](C)C(=O)O)CCNC2=O [Example 20, (2R)-2-{2-Methyl-4-oxo-3-[2-(phenylsulfonyl)benzyl]-4,5,6,7-tetrahydro-1H-pyrrolo [3,2-c]pyridin-1-yl}propanoic acid]"
14,8.4 nM,"Cc1c(Cc2ccccc2S(=O)(=O)c2ccc(Cl)cc2)c2c(n1CC(=O)O)CCNC2=O [Example 14, (3-{2-[(4-Chlorophenyl)sulfonyl]benzyl}-2-methyl-4-oxo-4,5,6,7-tetrahydro-1H-pyrrolo[3,2-c]pyridin-1-yl)acetic acid]"
15,6.2 nM,"Cc1c(Cc2ccccc2S(=O)(=O)c2cccc(F)c2)c2c(n1CC(=O)O)CCNC2=O [Example 12, (3-{2-[(3-Fluorophenyl)sulfonyl]benzyl}-2-methyl-4-oxo-4,5,6,7-tetrahydro-1H-pyrrolo[3,2-c]pyridin-1-yl)acetic acid]"
16,1.5 nM,"Cc1c(Cc2ccccc2S(=O)(=O)c2ccccc2)c2c(n1CC(=O)O)CCN(Cc1ccccc1)C2=O [Example 36, {5-Benzyl-2-methyl-4-oxo-3-[2-(phenylsulfonyl)benzyl]-4,5,6,7-tetrahydro-1H-pyrrolo[3,2-c]pyridin-1-yl}acetic acid]"
17,5.8 nM,"Cc1c(Cc2ccccc2S(=O)(=O)c2ccccc2)c2c(n1CC(=O)O)CCN(C(C)C(F)(F)F)C2=O (stereo not drawn) [Example 71, [2-Methyl-4-oxo-3-[2-(phenylsulfonyl)benzyl]-5-(2,2,2-trifluoro-1-methylethyl)-4,5,6,7-tetrahydro-1H-pyrrolo[3,2-c]pyridin-1-yl]acetic acid]"
18,3.7 nM,"Cc1c(Cc2cc(F)ccc2S(=O)(=O)c2ccccc2)c2c(n1CC(=O)O)CCNC2=O [Example 37, {3-[5-Fluoro-2-(phenylsulfonyl)benzyl]-2-methyl-4-oxo-4,5,6,7-tetrahydro-1H-pyrrolo[3,2-c]pyridin-1-yl}acetic acid]"
19,13 nM,"Cc1c(Cc2ccc(C(F)(F)F)cc2S(=O)(=O)c2ccccc2)c2c(n1CC(=O)O)CCNC2=O [Example 10, {2-Methyl-4-oxo-3-[2-(phenylsulfonyl)-4-(trifluoromethyl)benzyl]-4,5,6,7-tetrahydro-1H-pyrrolo[3,2-c]pyridin-1-yl}acetic acid]"
20,4 nM,"Cc1c(Cc2ccccc2S(=O)(=O)c2cccc(Cl)c2)c2c(n1CC(=O)O)CCNC2=O [Example 8, (3-{2-[(3-Chlorophenyl)sulfonyl]benzyl}-2-methyl-4-oxo-4,5,6,7-tetrahydro-1H-pyrrolo[3,2-c]pyridin-1-yl)acetic acid]"
21,8.6 nM,"Cc1c(Cc2ccccc2S(=O)(=O)c2ccccc2)c2c(=O)[nH]ccc2n1CC(=O)O [Example 72, {2-Methyl-4-oxo-3-[2-(phenylsulfonyl)benzyl]-4,5-dihydro-1H-pyrrolo[3,2-c]pyridin-1-yl}acetic acid]"
22,5.4 nM,"Cc1c(Cc2ccccc2S(=O)(=O)c2ccccc2)c2c(n1CC(=O)O)CCN(C)C2=O [Example 27, {2,5-Dimethyl-4-oxo-3-[2-(phenylsulfonyl)benzyl]-4,5,6,7-tetrahydro-1H-pyrrolo[3,2-c]pyridin-1-yl}acetic acid]"
23,3.6 nM,"Cc1c(Cc2ccccc2S(=O)(=O)c2ccccc2F)c2c(n1CC(=O)O)CCNC2=O [Example 17, (3-{2-[(2-Fluorophenyl)sulfonyl]benzyl}-2-methyl-4-oxo-4,5,6,7-tetrahydro-1H-pyrrolo[3,2-c]pyridin-1-yl)acetic acid]"

row,Compound,IC50
1,"Cc1c(Cc2ccccc2S(=O)(=O)c2ccccc2)c2c(n1CC(=O)O)CCNC2=O [Example 2, {2-Methyl-4-oxo-3-[2-(phenylsulfonyl)benzyl]-4,5,6,7-tetrahydro-1H-pyrrolo[3,2-c]pyridin-1-yl}acetic acid]",4.6 nM
